Values joined by “and” are separate entries in the source; they are usually repeats but may differ in a detail not shown here. Equal values may be shown once.
Experiment: xn = mol fraction of the nth substance listed

O=C1CCCC1 + Nc1cccc(Cl)c1
viscosity [mPa·s], 100 kPa
Conditions	x2 = 0.0805	x2 = 0.1814	x2 = 0.2804	x2 = 0.3815	x2 = 0.4998	x2 = 0.5995	x2 = 0.6995	x2 = 0.7875	x2 = 0.9071
303.15 K	1.111	1.291	1.493	1.731	2.058	2.379	2.752	3.127	3.719
308.15 K	1.047	1.211	1.395	1.611	1.903	2.19	2.521	2.852	3.373
313.15 K	0.9683	1.117	1.282	1.474	1.734	1.987	2.278	2.568	3.023
318.15 K	0.9063	1.039	1.185	1.354	1.58	1.799	2.049	2.296	2.681

C1COCCN1 + O
293.15 K, 101 kPa
Conditions	viscosity [mPa·s]
x1 = 0.01898	1.327
x1 = 0.04739	1.963
x1 = 0.08285	3.082
x1 = 0.1083	4.064
x1 = 0.1739	7.227
x1 = 0.2362	10.22
x1 = 0.2817	11.61
x1 = 0.3018	11.87
x1 = 0.3247	12.17
x1 = 0.3476	12.13
x1 = 0.3543	12.09
x1 = 0.4548	10.43
x1 = 0.68	5.954

N=C(N)NCCC[C@H](N)C(=O)O + O
viscosity [mPa·s]
Conditions	100 kPa	101 kPa
293.15 K, x1 = 0.00045	1.015	–
293.15 K, x1 = 0.00135	1.038	–
293.15 K, x1 = 0.002247	1.06	–
293.15 K, x1 = 0.002695	1.071	–
293.15 K, x1 = 0.00359	1.094	–
293.15 K, x1 = 0.008927	–	1.295
293.15 K, x1 = 0.01246	–	1.431
298.15 K, x1 = 0.00135	0.9205	–
303.15 K, x1 = 0.00045	0.8065	–
303.15 K, x1 = 0.00135	0.8226	–
303.15 K, x1 = 0.001798	0.8306	–
303.15 K, x1 = 0.002247	0.8385	–
303.15 K, x1 = 0.003143	0.854	–
303.15 K, x1 = 0.00359	0.8618	0.8782
308.15 K, x1 = 0.003143	0.7665	–
313.15 K, x1 = 0.003143	0.6924	–
313.15 K, x1 = 0.005375	–	0.7504
313.15 K, x1 = 0.01246	–	0.9039
318.15 K, x1 = 0.002695	0.6262	–
323.15 K, x1 = 0.0018	–	0.5712
323.15 K, x1 = 0.00359	–	0.597
323.15 K, x1 = 0.005375	–	0.6242
323.15 K, x1 = 0.008927	–	0.6832
323.15 K, x1 = 0.01246	–	0.7455

O=C(CO)[C@@H](O)[C@H](O)[C@H](O)CO + O
Conditions	viscosity
293.15 K, 101 kPa, x1 = 0.011	1.18 mPa·s and 1.18 mPa·s
293.15 K, 101 kPa, x1 = 0.0244	1.84 mPa·s
293.15 K, 101 kPa, x1 = 0.0411	2.73 mPa·s
293.15 K, 101 kPa, x1 = 0.0625	5.02 mPa·s
293.15 K, 101 kPa, x1 = 0.0909	10.48 mPa·s and 11 mPa·s
293.15 K, 101 kPa, x1 = 0.13	31.43 mPa·s and 32 mPa·s
298.15 K, 101 kPa, x1 = 0.0005	0.934 mPa·s and 0.934 mPa·s
298.15 K, 101 kPa, x1 = 0.0007	0.9442 mPa·s and 0.9442 mPa·s
298.15 K, 101 kPa, x1 = 0.0009	0.9494 mPa·s and 0.9494 mPa·s
298.15 K, 101 kPa, x1 = 0.0018	0.9838 mPa·s and 0.9838 mPa·s
298.15 K, 101 kPa, x1 = 0.002	0.9772 mPa·s and 0.9772 mPa·s
298.15 K, 101 kPa, x1 = 0.00201	0.944 mPa·s
298.15 K, 101 kPa, x1 = 0.004	1.063 mPa·s
298.15 K, 101 kPa, x1 = 0.00623	1.094 mPa·s
298.15 K, 101 kPa, x1 = 0.011	1.02 mPa·s and 1 mPa·s
298.15 K, 101 kPa, x1 = 0.0244	1.59 mPa·s
298.15 K, 101 kPa, x1 = 0.0411	2.15 mPa·s
298.15 K, 101 kPa, x1 = 0.0625	4.17 mPa·s
298.15 K, 101 kPa, x1 = 0.0909	8 mPa·s and 8 mPa·s
298.15 K, 101 kPa, x1 = 0.13	24.3 mPa·s and 25 mPa·s
298.15 K, 101.3 kPa, x1 = 0.002	0.93 mPa·s
298.15 K, 101.3 kPa, x1 = 0.00359	0.969 mPa·s
298.15 K, 101.3 kPa, x1 = 0.007154	1.055 mPa·s
298.15 K, 101.3 kPa, x1 = 0.01069	1.15 mPa·s
298.15 K, 101.3 kPa, x1 = 0.01421	1.252 mPa·s
298.15 K, 101.3 kPa, x1 = 0.0177	1.362 mPa·s
298.15 K, 101.3 kPa, x1 = 0.02116	1.483 mPa·s
303.15 K, 100 kPa, x1 = 0.0009	0.8331 mPa·s
303.15 K, 100 kPa, x1 = 0.0027	0.8672 mPa·s
303.15 K, 100 kPa, x1 = 0.0045	0.9015 mPa·s
303.15 K, 100 kPa, x1 = 0.0063	0.9349 mPa·s
303.15 K, 101.3 kPa, x1 = 0.002	0.834 mPa·s
308.15 K, 101 kPa, x1 = 0.00201	0.7816 mPa·s
308.15 K, 101 kPa, x1 = 0.004	0.8663 mPa·s
308.15 K, 101 kPa, x1 = 0.00623	0.8883 mPa·s
308.15 K, 101 kPa, x1 = 0.007265	0.863 mPa·s
308.15 K, 101 kPa, x1 = 0.01082	0.928 mPa·s
308.15 K, 101 kPa, x1 = 0.011	0.93 mPa·s and 0.95 mPa·s
308.15 K, 101 kPa, x1 = 0.01435	1.01 mPa·s
308.15 K, 101 kPa, x1 = 0.02129	1.189 mPa·s
308.15 K, 101 kPa, x1 = 0.0244	1.27 mPa·s
308.15 K, 101 kPa, x1 = 0.02481	1.305 mPa·s
308.15 K, 101 kPa, x1 = 0.02821	1.394 mPa·s
308.15 K, 101 kPa, x1 = 0.04021	1.833 mPa·s
308.15 K, 101 kPa, x1 = 0.0411	1.96 mPa·s
308.15 K, 101 kPa, x1 = 0.0435	1.998 mPa·s
308.15 K, 101 kPa, x1 = 0.05099	2.372 mPa·s
308.15 K, 101 kPa, x1 = 0.0625	3.08 mPa·s
308.15 K, 101 kPa, x1 = 0.0909	5.99 mPa·s and 6.05 mPa·s
308.15 K, 101 kPa, x1 = 0.13	14.76 mPa·s and 14 mPa·s
308.15 K, 101.3 kPa, x1 = 0.002	0.753 mPa·s
313.15 K, 101 kPa, x1 = 0.011	0.77 mPa·s
313.15 K, 101 kPa, x1 = 0.0244	1.12 mPa·s
313.15 K, 101 kPa, x1 = 0.0411	1.52 mPa·s
313.15 K, 101 kPa, x1 = 0.0625	2.83 mPa·s
313.15 K, 101 kPa, x1 = 0.0909	4.51 mPa·s and 4.6 mPa·s
313.15 K, 101 kPa, x1 = 0.13	11.83 mPa·s and 11.8 mPa·s
313.15 K, 101.3 kPa, x1 = 0.002	0.685 mPa·s
318.15 K, 101 kPa, x1 = 0.007256	0.696 mPa·s
318.15 K, 101 kPa, x1 = 0.01084	0.758 mPa·s
318.15 K, 101 kPa, x1 = 0.02144	0.946 mPa·s
318.15 K, 101 kPa, x1 = 0.0244	0.99 mPa·s
318.15 K, 101 kPa, x1 = 0.02474	1.021 mPa·s
318.15 K, 101 kPa, x1 = 0.03978	1.469 mPa·s
318.15 K, 101 kPa, x1 = 0.0411	1.24 mPa·s
318.15 K, 101 kPa, x1 = 0.05983	2.055 mPa·s
318.15 K, 101 kPa, x1 = 0.0625	2.3 mPa·s
318.15 K, 101 kPa, x1 = 0.0909	3.65 mPa·s
318.15 K, 101 kPa, x1 = 0.13	9.57 mPa·s and 8 mPa·s
318.15 K, 101.3 kPa, x1 = 0.002	0.625 mPa·s
323.15 K, 101 kPa, x1 = 0.011	0.69 mPa·s
323.15 K, 101 kPa, x1 = 0.0244	0.92 mPa·s
323.15 K, 101 kPa, x1 = 0.0411	1.29 mPa·s
323.15 K, 101 kPa, x1 = 0.0625	2.04 mPa·s
323.15 K, 101 kPa, x1 = 0.0909	3.4 mPa·s
323.15 K, 101 kPa, x1 = 0.13	7.81 mPa·s and 7.5 mPa·s

O=C[O-].OCC[NH2+]CCO + O
100 kPa
Conditions	viscosity [mPa·s]
293.15 K, x2 = 0.8484	8.19
303.15 K, x2 = 0.4068	75.66
303.15 K, x2 = 0.4845	65.08
303.15 K, x2 = 0.7816	11.05
303.15 K, x2 = 0.8484	5.927
313.15 K, x2 = 0.2013	99.28
313.15 K, x2 = 0.2622	77.5
313.15 K, x2 = 0.7816	7.98
323.15 K, x2 = 0.2013	61.45
323.15 K, x2 = 0.7816	6.008
323.15 K, x2 = 0.9708	0.9306
